Source: PubChem BioAssay AID330 (DTP/NCI, 2004)
“And” between values parts separate entries of the source, which are not always exact repeats. Equal entries are not always repeated. Inconclusive results and toxic doses are left out.

Test system: P388 leukemia ip, CD2F1 mice, survival T/C
Assay: NCI In Vivo Anticancer Drug Screen. Data for tumor model P388 Leukemia (intraperitoneal) in CD2F1 (CDF1) mice
Settings: endpoint: median survival time, higher = longer survival
Procedure, shortened: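 Mice carrying the transplanted tumor received test compound or vehicle. Survival was recorded in each group, and the value is the treated-group measurement divided by that of the vehicle-treated control group.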

[1] = dose: 50.0 mg/kg/injection, schedule: Q01DX009 (ip), vehicle: saline with Tween-80

## Cc1ccc(S(=O)(=O)OCCN(CCOS(=O)(=O)c2ccc(C)cc2)c2ccc(F)cc2)cc1
dose: 0.63 mg/kg/injection, schedule: Q01DX009 (ip), vehicle: other
  T/C: 104 % of control
dose: 1.25 mg/kg/injection, schedule: Q01DX009 (ip), vehicle: other
  T/C: 118 % of control
dose: 5.0 mg/kg/injection, schedule: Q01DX009 (ip), vehicle: other
  T/C: 150 % of control

## O=C1CCC2(CC1)CCc1ccccc1C2=O
dose: 100.0 mg/kg/injection, schedule: Q01DX001 (ip), vehicle: saline with Tween-80
  T/C: 103 % of control
dose: 200.0 mg/kg/injection, schedule: Q01DX001 (ip), vehicle: saline with Tween-80
  T/C: 97 % of control
dose: 400.0 mg/kg/injection, schedule: Q01DX001 (ip), vehicle: saline with Tween-80
  T/C: 103 % of control

## CCCCOC(=O)OOC(C)(C)C
[1]
  T/C: 110 % of control
dose: 100.0 mg/kg/injection, schedule: Q01DX009 (ip), vehicle: saline with Tween-80
  T/C: 110 % of control
dose: 200.0 mg/kg/injection, schedule: Q01DX009 (ip), vehicle: saline with Tween-80
  T/C: 110 % of control

## Cc1ccc(S(=O)(=O)/C=C/CCl)cc1
dose: 50.0 mg/kg/injection, schedule: Q01DX005 (ip), vehicle: saline with Tween-80
  T/C: 103 % of control
dose: 100.0 mg/kg/injection, schedule: Q01DX005 (ip), vehicle: saline with Tween-80
  T/C: 113 % of control

## COC(=O)CC(CCCCCCCCCCCCC(C)C)OC(C)=O (stereo unspecified)
dose: 8.13 mg/kg/injection, schedule: Q01DX005 (ip), vehicle: Klucel (hydroxypropylcellulose) (HPC)
  T/C: 94 % of control
dose: 16.25 mg/kg/injection, schedule: Q01DX005 (ip), vehicle: Klucel (hydroxypropylcellulose) (HPC)
  T/C: 96 % of control
dose: 32.5 mg/kg/injection, schedule: Q01DX005 (ip), vehicle: Klucel (hydroxypropylcellulose) (HPC)
  T/C: 99 % of control
dose: 65.0 mg/kg/injection, schedule: Q01DX005 (ip), vehicle: Klucel (hydroxypropylcellulose) (HPC)
  T/C: 112 % of control

## CN(C)C(=C[N+](=O)[O-])N(C)C
dose: 50.0 mg/kg/injection, schedule: Q01DX009 (ip), vehicle: saline
  T/C: 101 % of control
dose: 100.0 mg/kg/injection, schedule: Q01DX009 (ip), vehicle: saline
  T/C: 103 % of control
dose: 200.0 mg/kg/injection, schedule: Q01DX009 (ip), vehicle: saline
  T/C: 104 % of control

## CC(CC1(c2ccccc2)C(=O)NC(=O)NC1=O)OC(=O)c1ccc([N+](=O)[O-])cc1 (stereo unspecified)
dose: 50.0 mg/kg/injection, schedule: Q01DX009 (ip), vehicle: Klucel (hydroxypropylcellulose) (HPC)
  T/C: 103 % of control
dose: 100.0 mg/kg/injection, schedule: Q01DX009 (ip), vehicle: Klucel (hydroxypropylcellulose) (HPC)
  T/C: 100 % of control
dose: 200.0 mg/kg/injection, schedule: Q01DX009 (ip), vehicle: Klucel (hydroxypropylcellulose) (HPC)
  T/C: 99 % of control

## CC1CN2CC(C)O[Si](CCCCCC[Si]34OC(C)CN(CC(C)O3)CC(C)O4)(O1)OC(C)C2 (stereo unspecified)
dose: 50.0 mg/kg/injection, schedule: Q01DX005 (ip), vehicle: Klucel (hydroxypropylcellulose) (HPC)
  T/C: 108 % of control
dose: 100.0 mg/kg/injection, schedule: Q01DX005 (ip), vehicle: Klucel (hydroxypropylcellulose) (HPC)
  T/C: 97 % of control
dose: 200.0 mg/kg/injection, schedule: Q01DX005 (ip), vehicle: Klucel (hydroxypropylcellulose) (HPC)
  T/C: 97 % of control

## CC(NNC(=S)N1CCC(c2ccccc2)CC1)c1cc2ccccc2cn1 (stereo unspecified)
dose: 6.25 mg/kg/injection, schedule: Q01DX005 (ip), vehicle: saline with Tween-80
  T/C: 97 % of control
dose: 12.5 mg/kg/injection, schedule: Q01DX005 (ip), vehicle: saline with Tween-80
  T/C: 103 % of control
dose: 25.0 mg/kg/injection, schedule: Q01DX005 (ip), vehicle: saline with Tween-80
  T/C: 111 % of control

## CC(C)(C)NC(=O)OCc1c(COC(=O)NC(C)(C)C)c(-c2ccc(Cl)c(Cl)c2)n2c1CCC2
dose: 6.25 mg/kg/injection, schedule: Q01DX009 (ip), vehicle: distilled water + Tween-80
  T/C: 123 % of control
dose: 12.5 mg/kg/injection, schedule: Q01DX009 (ip), vehicle: distilled water + Tween-80
  T/C: 124 % of control
dose: 50.0 mg/kg/injection, schedule: Q01DX009 (ip), vehicle: distilled water + Tween-80
  T/C: 158 % of control and 164 % of control
dose: 100.0 mg/kg/injection, schedule: Q01DX009 (ip), vehicle: distilled water + Tween-80
  T/C: 164 % of control and 167 % of control
dose: 200.0 mg/kg/injection, schedule: Q01DX009 (ip), vehicle: distilled water + Tween-80
  T/C: 172 % of control
dose: 400.0 mg/kg/injection, schedule: Q01DX009 (ip), vehicle: distilled water + Tween-80
  T/C: 117 % of control

## Cc1cccc2c(C(=O)O)cc(-c3ccc(Cl)cc3)nc12
dose: 12.5 mg/kg/injection, schedule: Q01DX009 (ip), vehicle: saline with Tween-80
  T/C: 104 % of control
dose: 25.0 mg/kg/injection, schedule: Q01DX009 (ip), vehicle: saline with Tween-80
  T/C: 99 % of control
[1]
  T/C: 108 % of control
